molecular target: T1, SIN3A Paired amphipathic helix protein Sin3a (Homo sapiens, UniProt Q96ST3); test: competitive isoTOP-ABPP; assay type: binding; conditions: 50 uM, in vitro, sol, 231
T1 construct: isoTOP-ABPP experiments performed in cell lysates (in vitro); endogenous in cells; host or cells: soluble proteome of human cancer cell lines (MDA-MB-231; Ramos and Jurkat also prepared)
T1 sequence (Q96ST3 1-1273): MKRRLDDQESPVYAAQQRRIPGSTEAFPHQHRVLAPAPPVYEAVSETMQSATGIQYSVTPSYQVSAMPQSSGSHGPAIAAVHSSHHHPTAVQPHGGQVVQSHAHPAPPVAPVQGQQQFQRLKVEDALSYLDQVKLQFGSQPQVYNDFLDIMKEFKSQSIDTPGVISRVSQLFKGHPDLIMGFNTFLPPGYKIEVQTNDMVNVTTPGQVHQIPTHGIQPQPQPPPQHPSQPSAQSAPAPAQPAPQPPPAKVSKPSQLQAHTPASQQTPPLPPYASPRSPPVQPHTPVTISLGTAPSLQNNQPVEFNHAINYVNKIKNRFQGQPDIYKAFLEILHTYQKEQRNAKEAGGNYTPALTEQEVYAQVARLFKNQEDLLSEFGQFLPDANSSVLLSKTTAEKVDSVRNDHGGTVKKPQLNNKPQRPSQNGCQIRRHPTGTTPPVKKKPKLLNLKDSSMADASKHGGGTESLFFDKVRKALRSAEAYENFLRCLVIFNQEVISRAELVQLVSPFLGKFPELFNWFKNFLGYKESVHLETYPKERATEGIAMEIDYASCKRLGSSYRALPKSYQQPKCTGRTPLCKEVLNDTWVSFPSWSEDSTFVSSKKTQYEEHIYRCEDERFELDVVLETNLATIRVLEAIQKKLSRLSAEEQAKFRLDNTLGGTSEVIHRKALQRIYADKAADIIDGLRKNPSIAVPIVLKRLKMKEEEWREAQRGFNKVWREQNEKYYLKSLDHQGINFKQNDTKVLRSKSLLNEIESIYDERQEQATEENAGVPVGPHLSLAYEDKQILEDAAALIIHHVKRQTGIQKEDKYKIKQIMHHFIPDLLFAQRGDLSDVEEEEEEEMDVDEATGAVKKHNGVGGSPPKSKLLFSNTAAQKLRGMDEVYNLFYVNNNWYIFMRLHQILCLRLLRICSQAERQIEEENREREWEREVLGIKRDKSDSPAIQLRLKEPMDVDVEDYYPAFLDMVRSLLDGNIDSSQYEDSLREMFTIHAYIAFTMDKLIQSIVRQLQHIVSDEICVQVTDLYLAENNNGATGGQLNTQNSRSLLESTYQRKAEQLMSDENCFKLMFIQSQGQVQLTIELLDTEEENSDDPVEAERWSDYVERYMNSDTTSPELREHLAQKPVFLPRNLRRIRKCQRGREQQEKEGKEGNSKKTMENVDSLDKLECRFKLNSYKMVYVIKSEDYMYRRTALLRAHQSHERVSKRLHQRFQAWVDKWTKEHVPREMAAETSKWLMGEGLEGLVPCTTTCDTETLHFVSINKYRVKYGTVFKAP
Protocol: In vitro covalent fragment treatment for isoTOP-ABPP. All compounds were made up as solutions in DMSO (100×) and were used at a final concentration of 50 μM for activated esters and 100 μM for guanidinylating agents. For each profiling sample, 0.5 ml of lysate was treated with 5 μl of the 100× compound stock solution or 5 μl of DMSO. Samples were treated with activated esters for
STP-alkyne labeling and click chemistry. For concentration-dependent reactivity measurements by isoTOP-ABPP, 0.5 ml proteome aliquots were treated at ambient temperature with 1 mM STP-alkyne 1 (5 μl of 100 mM stock in DMSO) and 0.1 mM STP alkyne 1 (5 μl of 10 mM stock in DMSO), respectively. For competitive isoTOP-ABPP, after in vitro fragment treatment (detailed above), the samples were labeled for 1 h at ambient temperature with 0.1 mM STP-alkyne 1 (5 μl of 10 mM stock in DMSO). Samples were conjugated by copper-mediated azide-alkyne cycloaddition (CuAAC) to either the light (1 mM STP-alkyne or fragment treated) or heavy (0.1 mM STP-alkyne or DMSO treated) TEV tags (10 μl of 5 mM stocks in DMSO, final concentration=100 μM) using tris(2-carboxyethyl)phosphine hydrochloride
R value calculation and processing. The ratios of light and heavy MS1 peaks for each unique peptide were quantified with a CIMAGE software using default parameters (3 MS1 acquisitions per peak and signal to noise threshold set to 2.5). For reactivity measurements by isoTOP-ABPP, the R value was calculated from the ratio of MS1 peak areas, comparing the 1 mM STP alkyne sample (light TEV tag) with the 0.1 mM STP alkyne sample (heavy TEV tag). For competitive isoTOP-ABPP, the R value was calculated from the ratio of MS1 peak areas, comparing the DMSO treated sample (heavy TEV tag) with the compound treated sample (light TEV tag). […] Ratios for unique peptide entries are calculated for each experiment; overlapping peptides with the same modified lysine (for example, different charge states, MudPIT chromatographic steps or tryptic termini) are grouped together and the median ratio is reported as the final ratio (R). The peptide ratios reported by CIMAGE were further filtered to ensure the removal or correction of low-quality ratios in each individual data set. The quality filters applied were the following: removal of half tryptic peptides; for ratios with high standard deviations from the median (90% of the median or above) the lowest ratio was taken instead of the median; removal of peptides with R=20 and only a single MS2 event triggered during the elution of the parent ion; manual annotation of all the peptides with ratios of 20, removing any peptides with low quality elution profiles that remained after the previous curation steps (only done for competitive isoTOP-ABPP).
Cross-data processing for fragment screening. For compound treated samples, biological replicates of the same condition were averaged, if the standard deviation was below 60% of the mean; otherwise, for lysines with at least one R value <4 for a particular compound, the lowest value of the ratio set was taken. For lysines, where all R values for a particular compound were ≥4, the average was reported. For peptides containing several possible modified lysines, the lysine with the highest number of quantification events was used for analysis and the remaining, redundant peptides were reported as alternative modification sites. Peptides included in the aggregate dataset (those used for further bioinformatics and statistical analyses) were required to have been quantified in 2 experiments for competitive isoTOP-ABPP. Lysines were categorized as liganded, if they had at least one ratio R≥4 (hit fragments). For liganded lysines with R=20 for all liganding events, lysines were required to have been quantified with R=20 in two separate experiments and were further required to have been quantified with R<20 in one additional experiment.

SMILES	isoTOP-ABPP ratio (R) at liganded lysine Q96ST3_K155
CC(C)(C)OC(=O)NCCCC(=O)Oc1ccc([N+](=O)[O-])cc1[N+](=O)[O-] [fragment 41, 2,4-Dinitrophenyl 4-((tert-butoxycarbonyl)amino)butanoate]	1.3
O=C(Oc1ccc([N+](=O)[O-])cc1[N+](=O)[O-])C(c1ccccc1)(c1ccccc1)c1ccccc1 [fragment 42, 2,4-Dinitrophenyl 2,2,2-triphenylacetate]	0.9
CC(=O)Oc1ccc([N+](=O)[O-])cc1[N+](=O)[O-] [fragment 43, 2,4-Dinitrophenyl acetate]	1.2

same assay, conditions: 50 uM_231_sol_in vitro; possible other lysine Q96ST3_K152

SMILES	isoTOP-ABPP ratio, lysine Q96ST3_K155
N#Cc1ccc(C(=O)Oc2ccc([N+](=O)[O-])cc2[N+](=O)[O-])cc1 [fragment 44, 2,4-Dinitrophenyl 4-cyanobenzoate]	1.5
O=C(CCc1ccc2c(c1)OCO2)Oc1ccc([N+](=O)[O-])cc1[N+](=O)[O-] [fragment 45, 2,4-Dinitrophenyl 3-(benzo[d][1,3]dioxol-5-yl)propanoate]	1.5
O=C(ON1C(=O)CCC1=O)c1cc(C(F)(F)F)cc(C(F)(F)F)c1 [fragment 46, 3,5-Bis(trifluoromethyl)benzoic acid NHS ester]	4.4
O=C(Oc1c(F)c(F)c(C(F)(F)F)c(F)c1F)c1cc(C(F)(F)F)cc(C(F)(F)F)c1 [fragment 47, 2,3,5,6-Tetrafluoro-4-(trifluoromethyl)phenyl 3,5-bis(trifluoromethyl)benzoate]	1.8
O=C(Oc1c(F)c(F)cc(F)c1F)c1cc(C(F)(F)F)cc(C(F)(F)F)c1 [fragment 48, 2,3,5,6-Tetrafluorophenyl 3,5-bis(trifluoromethyl)benzoate]	20.0
NC(=O)c1cc(C(F)(F)F)cc(C(F)(F)F)c1 [fragment 51, reference compound]	1.1

same assay, conditions: 100 uM_231_sol_in vitro; possible other lysine Q96ST3_K152

SMILES	isoTOP-ABPP ratio, lysine Q96ST3_K155
CC(C)(C)OC(=O)N=C(NC(=O)OC(C)(C)C)n1cccn1 [fragment 50, reference compound]	3.5

— US20210255193A1, “LYSINE REACTIVE PROBES AND USES THEREOF” (The Scripps Research Institute, priority 2017, published 2021)
